pIC50: −log10 of the molar value.
Experiments:
[1] = system: cancer cells; details: in vitro and in vivo studies; cited from earlier work
[2] = system: Jurkat leukemia T cells, mouse melanoma B16F10 cells, human PDAC cells (Bx-PC3, PANC-1, As-PC1, CAPAN-1); details: B16F10, Bx-PC3, PANC-1, As-PC1, CAPAN-1 cells; cited from earlier work
[3] = system: pancreatic cancer cell line Colo 357; assay: Cytotoxicity in conventional 2D cultures, Cytotox green, Incucyte live cell imaging; assay type: cell-based; details: 24 hours of treatment, FIG. 1
Procedure: FIG. 1. Cytotoxicity of the indicated compounds. Cells plated on 96-well plates were incubated in the presence of 50 μM of the indicated compounds and fluorescence of the dead-cell marker Cytotox green was monitored over time. In the Figure, fluorescence values after 24 h are reported normalized to the value obtained in the presence of DMSO. […] The symbols indicate biological replicates (with three technical replicates each).
(§1) To test the activity of the compounds on biological systems, we chose the pancreatic cancer cell line Colo 357, which expresses Kv1.3 and is sensitive to cell-permeant Kv1.3 inhibitors (Zaccagnino et al., Oncotarget 8, 38276-38293, 2017). Growth, cell viability and apoptosis were all determined by high content imaging in a Incucyte (Sartorius) live cell imaging device. Images were taken every hour for several days after addition of the compounds dissolved in DMSO (time 0) and the corresponding indicators, CytotoxGreen or CytotoxRed for cytotoxicity and the green Caspase 3/7 activity reporter for apoptosis.
The first screening for cytotoxicity was performed on conventional 2D cultures (FIG. 1).

[4] = system: pancreatic cancer cell line Colo 357; assay: Apoptosis in 2D culture, caspase 3/7 activity reporter; assay type: cell-based, human; details: 24 h incubation, FIG. 2; for Apoptosis induction (caspases 3/7 activation): already at 5 μM
Procedure: FIG. 2. Levels of apoptosis observed in the presence of the indicated compounds after 24 hours incubation. Apoptosis was measured as activation of the executor caspases 3/7, using a fluorescent indicator. The values were normalized against the apoptosis level observed in the presence of the solvent (DMSO). The symbols indicate biological replicates (with three technical replicates each).
as §1
The toxic effect of both compounds was induced through apoptosis, as expected from mitoKv1.3 inhibitors Urbani, A., et al., Front Cell Dev Biol 8, 620081, 2021). FIG. 2 represents apoptosis induction after 24 h incubation in the presence of compound 2 and 8 at the indicated concentrations.

[5] = system: Colo 357 tumor spheroids; assay: Cytotoxicity on tumor spheroids (3-D cultures), Cytotox green; assay type: cell-based, human; details: concentrations as low as 5 μM, 48 h treatment, FIG. 3
Procedure: FIG. 3. Cytotoxicity of the indicated compounds on tumor spheroids. Fluorescence of the dead-cell marker Cytotox green was monitored over time. In the Figure, fluorescence values after 48 h in the presence of the indicated concentration of the compound are reported normalized to the value obtained in the presence of DMSO. The symbols indicate biological replicates (with three technical replicates each).
as §1
To obtain information on the effect of the compounds in a model more similar to the situation in vivo, the effects of 2 and 8 were also studied in tumor spheroids. […] Cytotoxicity was determined as in the conventional 2D cultures but after 48 h treatment instead of 24 h, because the effects needed longer time to develop.

[6] = system: KV1.3; details: cited from earlier work
[7] = biological target: KV1.5 (Homo sapiens, UniProt P22460); details: cited from earlier work
[8] = system: human SAOS2, mouse B16F10 melanoma, and human B-CLL; details: cited from earlier work
[9] = system: HEK293 and K562 cells, and T and B cells from healthy subjects; details: cited from earlier work
[10] = system: orthotopic melanoma B16F10; details: cited from earlier work; for B16F10 tumor volume: orthotopic mouse B16F10 melanoma model
[11] = system: human pancreatic Colo357 tumors; details: mice; cited from earlier work
[12] = system: KV1.1, KV1.2, KV1.5 and KV3.1; details: cited from earlier work
[13] = system: pancreatic ductal adenocarcinoma (PDAC) cells; details: cited from earlier work
[14] = system: orthotopic PDAC xenograft; details: SCID beige mouse; cited from earlier work
[15] = cited from earlier work
[16] = system: Colo 357 tumor spheroids; assay: Apoptosis in tumor spheroids (3D culture), caspase 3/7 reporter; assay type: cell-based, human; details: 25 μM, FIG. 6
Procedure: FIG. 4. Levels of apoptosis observed in the presence of the indicated compounds during 48 h of treatment. Images were acquired every hour. Apoptosis was measured as activation of the executor caspases 3/7, using a fluorescent indicator. Mean±SEM, three replicates.
FIG. 5. Levels of apoptosis observed in the presence of the indicated compounds over time at two different concentrations (the curves for control and 5 μM are the same as in FIG. 4). Apoptosis was measured as activation of the executor caspases 3/7, using a fluorescent indicator. The open symbols in orange represent 5 μM, solid symbols indicate 25 μM.
FIG. 6. Comparison of the time course of the induction of apoptosis (orange) and of cell death (blue) in the presence of 25 μM compound 8. […]
To test the activity of the compounds on biological systems, we chose the pancreatic cancer cell line Colo 357, which expresses Kv1.3 and is sensitive to cell-permeant Kv1.3 inhibitors (Zaccagnino et al., Oncotarget 8, 38276-38293, 2017). Growth, cell viability and apoptosis were all determined by high content imaging in a Incucyte (Sartorius) live cell imaging device. […]
Cell death in 3D culture was also attributable to induction of apoptosis. […] The fluorescence of the caspase 3/7 reporter was detectable soon after addition of the treatment and was markedly more intense than the values measured in the control treatment (DMSO).

O=C(OCCC[P+](c1ccccc1)(c1ccccc1)c1ccccc1)Oc1ccc(OCCCCOc2c3ccoc3cc3oc(=O)ccc23)cc1.[I-] [PCTP, (3-(((4-(4-((7-oxo-7H-furo[3,2-g]chromen-4-yl)oxy)butoxy)phenoxy)carbonyl)oxy)propyl)triphenylphosphonium iodide]
Effectiveness compared with the parent PAP-1 [1]: much more effective than the parent PAP-1
Cell death [2]: induced cell death

COc1ccccc1C(=O)NC[C@]1(c2ccsc2)CC[C@H](OC(=O)NCCC[P+](c2ccccc2)(c2ccccc2)c2ccccc2)CC1.[I-] [Example 2, (3-(((((1S,4S)-4-((2-Methoxybenzamido)methyl)-4-(thiophen-3-yl)cyclohexyl)oxy)carbonyl)amino)propyl)triphenylphosphonium iodide]
Cell death (cytotoxicity screening) [3]: most intense effect
Dose dependence of the intensity of apoptosis induction [4]: increased in a dose-dependent manner
Apoptosis induction (caspases 3/7 activation) [4]: strong increase in apoptotic cells
Cytotoxicity in tumor spheroids [5]: significant levels of cytotoxicity

O=c1ccc2c(OCCCCOc3ccccc3)c3ccoc3cc2o1 [PAP-1, 4-(4-phenoxybutoxy)-7H-furo[3,2-g]chromen-7-one]
Apoptosis in cancer cells [8]: induced apoptosis
Effects on healthy cells [9]: did not show similar effects

O=c1ccc2c(OCCCCOc3ccc(CCC[P+](c4ccccc4)(c4ccccc4)c4ccccc4)cc3)c3ccoc3cc2o1.[I-] [PAPTP, (3-(4-(4-((7-oxo-7H-furo[3,2-g]chromen-4-yl)oxy)butoxy)phenyl)propyl)triphenylphosphonium iodide]
Tumor volume reduction ([10]; co-applied with cisplatin): more than 90%
B16F10 tumor volume [10]: greatly reduce
Effectiveness compared with the parent PAP-1 [1]: much more effective than the parent PAP-1
Cell death [2]: induced cell death
Colo357 tumors [11]: significant reductions

CC(C)N=c1cc2n(-c3ccc(Cl)cc3)c3ccccc3nc-2cc1Nc1ccc(Cl)cc1 [clofazimine, N,5-bis(4-chlorophenyl)-3-propan-2-yliminophenazin-2-amine]
pIC50 [6]: 6.52
Selectivity over KV1.1, KV1.2, KV1.5 and KV3.1 [12]: tenfold
Apoptosis in cancer cells [8]: induced apoptosis
Effects on healthy cells [9]: did not show similar effects
Apoptosis in PDAC cells [13]: induced apoptosis
Primary tumor weight [14]: significantly reduced
Reduction of tumor size ([10]; orthotopic melanoma B16F10 line, mouse): 90%

O=C(NCCC[P+](c1ccccc1)(c1ccccc1)c1ccccc1)Oc1ccc(OCCCCOc2c3ccoc3cc3oc(=O)ccc23)cc1.[I-] [PCARBTP, (3-(((4-(4-((7-oxo-7H-furo[3,2-g]chromen-4-yl)oxy)butoxy)phenoxy)carbonyl)amino)propyl)triphenylphosphonium iodide]
B16F10 tumor volume [10]: greatly reduce
Hydrolysis in culture medium ([15]; Dulbecco's modified Eagle medium): slow hydrolysis
Hydrolysis in mouse blood ([15]; physiological conditions, mouse blood): hydrolyzed to PAPOH
Effectiveness compared with the parent PAP-1 [1]: much more effective than the parent PAP-1
Cell death [2]: induced cell death
Colo357 tumors [11]: significant reductions

O=c1ccc2c(OCCCCc3ccccc3)c3ccoc3cc2o1 [Psora-4, 4-(4-Phenylbutoxy)-7H-furo[3,2-g][1]benzopyran-7-one]
Apoptosis in cancer cells [8]: induced apoptosis
Effects on healthy cells [9]: did not show similar effects

COc1ccccc1C(=O)NCC1(c2ccsc2)CCC(OC(=O)NCCCC[P+](c2ccccc2)(c2ccccc2)c2ccccc2)CC1.[I-] [Example 8, (4-(((((1S,4S)-4-((2-Methoxybenzamido)methyl)-4-(thiophen-3-yl)cyclohexyl)oxy)carbonyl)amino)butyl)triphenylphosphonium iodide]
Cell death (cytotoxicity screening) [3]: most intense effect
Dose dependence of the intensity of apoptosis induction [4]: increased in a dose-dependent manner
Apoptosis induction (caspases 3/7 activation) [4]: strong increase in apoptotic cells
Cytotoxicity in tumor spheroids [5]: significant levels of cytotoxicity
Time course of apoptosis compared with cytotoxicity in spheroids [16]: initiation of the decline in apoptosis signal corresponds to the start of the increase in the number of dead cells
